Reference: PMC12677607, “Identification of a Pair of Linear or Cyclic Naturally Inspired Bifunctional Lipopeptide Antibiotics That Overcome Antimicrobial Resistance” (Advanced Science, 2025)
Values after ≈ are worked out from the molar mass of the structure shown. Square brackets hold non-standard residues; d marks the D form. Peptide text beside a SMILES is read from it. * marks the point of attachment. Myristoyl = CCCCCCCCCCCCCC(=O)*; X2 = NC[C@H](Cc1ccc(O)cc1)N*; dOrn = NCCC[C@@H](N)C(=O)O; X1 = CC(C)[C@H](O)CC(=O)*; Orn = NCCC[C@H](N)C(=O)O; βAla = NCCC(=O)O

Key:
[1] = system: Escherichia coli DH5α; test: MIC assay (broth micro-dilution); assay type: cell-based; conditions: Table S11; LB broth, 37 °C, 16 h, n = 2
Method: (§1) All MIC assays were performed two independent times (n = 2) in 96‐well plates using a broth micro‐dilution method. The lowest concentration of that inhibited visible microbial growth was recorded as the MIC value.
(§2) For most of bacterial strains, overnight cultures were diluted 5000‐fold in LB broth. For E. faecium and S. aureus, overnight cultures were diluted 1000‐ and 10000‐fold in LB broth, respectively. 100 µL of diluted cells was mixed with 100 µL of LB broth containing each peptide ranging from 64 to 0.125 µg mL^−1 at 2‐fold serial dilutions.

[2] = system: Shigella Castellani LXX; test: MIC assay (broth micro-dilution); assay type: cell-based; conditions: Table S11; LB broth, 37 °C, 16 h, n = 2
Method: as §1, §2

[3] = system: B. subtilis ATCC 23857; test: MIC assay (broth micro-dilution); assay type: cell-based; conditions: Table S11; LB broth, 37 °C, 16 h, n = 2
Method: as §1, §2

[4] = system: Acinetobacter baumannii 1104008; test: microbe, parasite or virus in culture; assay type: cell-based; conditions: Table S11; LB broth, 37 °C, 16 h, n = 2
Procedure, shortened: (§3)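 Growth inhibition read visually; MIC taken as lowest inhibitory concentration. LB medium; inocula from overnight cultures diluted 5000-fold, S. aureus 10000-fold. Peptide range 64 to 0.125 µg mL^−1 (2-fold, pre-mix), two independent determinations.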

[5] = system: Enterococcus faecalis 26; test: microbe, parasite or virus in culture; assay type: cell-based; conditions: 26, 16 h
Procedure, shortened: as §3

[6] = system: Klebsiella pneumoniae CRKP HS11286; test: microbe, parasite or virus in culture; assay type: cell-based; conditions: CRKP HS11286, 16 h
Procedure, shortened: as §3

[7] = system: Enterococcus faecalis 28; test: microbe, parasite or virus in culture; assay type: cell-based; conditions: 28, 16 h
Procedure, shortened: as §3

[8] = system: Acinetobacter baumannii ATCC 17978; test: microbe, parasite or virus in culture; assay type: cell-based; conditions: ATCC 17978, 16 h
Procedure, shortened: as §3

[9] = system: Staphylococcus aureus ATCC 6538; test: microbe, parasite or virus in culture; assay type: cell-based; conditions: ATCC 6538, 16 h
Procedure, shortened: as §3

[10] = system: Klebsiella pneumoniae ATCC 13883; test: microbe, parasite or virus in culture; assay type: cell-based; conditions: ATCC 13883, 16 h
Procedure, shortened: as §3

[11] = system: Acinetobacter baumannii ATCC 19606; test: microbe, parasite or virus in culture; assay type: cell-based; conditions: ATCC 19606, 16 h
Procedure, shortened: as §3

[12] = system: Vibrio alginolyticus XSBZ14; test: microbe, parasite or virus in culture; assay type: cell-based; conditions: 16 h
Procedure, shortened: as §3

[13] = system: Streptococcus pyogenes ATCC 19615; test: microbe, parasite or virus in culture; assay type: cell-based; conditions: Table S11; LB broth, 37 °C, 16 h, n = 2
Procedure, shortened: as §3

[14] = system: Pseudomonas aeruginosa PAO1; test: microbe, parasite or virus in culture; assay type: cell-based; conditions: PAO1, 16 h
Procedure, shortened: as §3

[15] = system: Klebsiella pneumoniae CRKP 5452; test: microbe, parasite or virus in culture; assay type: cell-based; conditions: Table S11; LB broth, 37 °C, 16 h, n = 2
Procedure, shortened: as §3

[16] = system: Acinetobacter baumannii P53; test: microbe, parasite or virus in culture; assay type: cell-based; conditions: Table S11; LB broth, 37 °C, 16 h, n = 2
Procedure, shortened: as §3

[17] = system: Salmonella typhimurium LXX; test: microbe, parasite or virus in culture; assay type: cell-based; conditions: murium LXX, 16 h
Procedure, shortened: as §3

[18] = system: Staphylococcus aureus ATCC 25923; test: microbe, parasite or virus in culture; assay type: cell-based; conditions: ATCC 25923, 16 h
Procedure, shortened: as §3

[19] = system: Enterococcus faecalis ATCC 29212; test: microbe, parasite or virus in culture; assay type: cell-based; conditions: ATCC 29212, 16 h
Procedure, shortened: as §3

[20] = system: Enterococcus faecium 35682; test: microbe, parasite or virus in culture; assay type: cell-based; conditions: 35682, 16 h
Procedure, shortened: as §3

[21] = system: Staphylococcus aureus Newman; test: microbe, parasite or virus in culture; assay type: cell-based; conditions: Newman, 16 h
Procedure, shortened: as §3

[22] = system: Streptococcus mutans ATCC 25175; test: microbe, parasite or virus in culture; assay type: cell-based; conditions: ATCC 25175, 16 h
Procedure, shortened: as §3

[23] = system: Pseudomonas aeruginosa ATCC 9027; test: microbe, parasite or virus in culture; assay type: cell-based; conditions: ATCC 9027, 16 h
Procedure, shortened: as §3

[24] = system: Klebsiella pneumoniae NCTC 5056; test: microbe, parasite or virus in culture; assay type: cell-based; conditions: NCTC 5056, 16 h
Procedure, shortened: as §3

[25] = system: Staphylococcus aureus USA300; test: microbe, parasite or virus in culture; assay type: cell-based; conditions: Table S11; LB broth, 37 °C, 16 h, n = 2
Procedure, shortened: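 Broth microdilution in LB, run in two independent repeats. Overnight cultures were diluted 5000-fold, except S. aureus at 10000-fold, and mixed with peptide-containing LB (2-fold series, 64 to 0.125 µg mL^−1 before mixing). MIC is the lowest concentration that prevented visible growth.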

[26] = system: Salmonella enterica ATCC 14028; test: microbe, parasite or virus in culture; assay type: cell-based; conditions: ATCC 14028, 16 h
Procedure, shortened: as §3

[27] = system: Candida albicans ATCC 10231; test: MIC assay (YPD broth); assay type: cell-based; conditions: Table S11; YPD broth, 30 °C, 16 h, n = 2
Method: as §1
(§4) For fungal strains, overnight cultures were diluted 2000‐fold in YPD broth. 100 µL of diluted cells was mixed with 100 µL of YPD broth containing each peptide ranging from […] 64 to 0.125 µg mL^−1 at 2‐fold serial dilutions.

[28] = system: Candida albicans ATCC 64550; assay type: cell-based; conditions: ATCC 64550, 16 h
Method: as §1, §4

[29] = system: Gram negative and positive bacteria; set-up: method as in 2 sources, one per row (each row's own in cited_ref): ref 49 (a number printed in a supplementary file, which may have a reference list of its own: not looked up in the article's list) ||| ref 50 (a number printed in a supplementary file, which may have a reference list of its own: not looked up in the article's list); conditions: Figure S20, known paired peptides; cited from earlier work
[30] = set-up: method as in earlier work; conditions: Figure S20; cited from earlier work
[31] = set-up: method as in earlier work; conditions: Figure S20; cited from earlier work; remark: listed apart in the source

Row | Compound | MIC Shigella Castellani LXX [2] [µg/mL] | MIC Bacllussubtilis ATCC 23857 [3] [µg/mL] | MIC Acinetobacter baumannii 1104008 [4] [µg/mL] | MIC Enterococcus faecalis 26 [5] [µg/mL] | MIC Klebsiella pneumoniae CRKP HS11286 [6] [µg/mL] | MIC Enterococcus faecalis 28 [7] [µg/mL] | MIC Acinetobacter baumannii ATCC 17978 [8] [µg/mL] | MIC Staphylococcus aureus ATCC 6538 [9] [µg/mL] | MIC Klebsiella pneumoniae ATCC 13883 [10] [µg/mL] | MIC Acinetobacter baumannii ATCC 19606 [11] [µg/mL] | MIC Vibrio alginolyticus XSBZ14 [12] [µg/mL] | MIC Streptococcus pyogenes ATCC 19615 [13] [µg/mL] | MIC Pseudomonas aeruginosa PAO1 [14] [µg/mL] | MIC Klebsiella pneumoniae CRKP 5452 [15] [µg/mL] | MIC Acinetobacter baumannii P53 [16] [µg/mL] | MIC Salmonella typhimurium LXX [17] [µg/mL] | MIC Staphylococcus aureus ATCC 25923 [18] [µg/mL] | MIC Enterococcus faecalis ATCC 29212 [19] [µg/mL] | MIC Enterococcus faecium 35682 [20] [µg/mL] | MIC Staphylococcus aureus Newman [21] [µg/mL] | other results
1 | CC[C@H](C)[C@H](NC(=O)[C@@H](NC(=O)[C@@H](C)NC(=O)[C@H](C)NC(=O)[C@@H](NC(=O)C[C@@H](O)C(C)C)C(C)C)[C@@H](C)CC)C(=O)NCCC(=O)N[C@@H](CC(C)C)C(=O)N[C@H](C)C(=O)N[C@H](C(=O)N[C@H](CN)Cc1ccc(O)cc1)[C@@H](C)CC [synAQU4-L] (X1-VA[dA]II[βAla]L[dA]I-X2) | > 64 | > 64 | > 64 | > 64 | > 64 | > 64 | > 64 | > 64 | > 64 | > 64 | > 64 | 4 (≈ 3.58 µM) | > 64 | > 64 | > 64 | > 64 | > 64 | > 64 | > 64 | > 64 | MIC Escherichia coli DH5α [1]: > 64 µg/mL; MIC Streptococcus mutans ATCC 25175 [22]: 16 µg/mL (≈ 14.3 µM); MIC Pseudomonas aeruginosa ATCC 9027 [23]: > 64 µg/mL; MIC Klebsiella pneumoniae NCTC 5056 [24]: > 64 µg/mL; MIC Staphylococcus aureus USA300 [25]: > 64 µg/mL; MIC Salmonella enterica ATCC 14028 [26]: > 64 µg/mL; MIC Candida albicans ATCC 10231 [27]: > 64 µg/mL; MIC Candida albicans ATCC 64550 [28]: > 64 µg/mL
2 | CCCCCCCCCCCCCC(=O)N[C@@H](CCCN)C(=O)N[C@H](Cc1ccc(O)cc1)C(=O)N[C@@H](C(=O)N[C@@H](C(=O)N[C@H](CCCN)C(=O)N[C@@H](CCCN)C(=O)N[C@@H](C(=O)N[C@H](C(=O)N[C@@H](CC(C)C)C(=O)N[C@H](CCCN)C(=O)N[C@H](C(=O)N[C@@H](C)C(=O)O)[C@@H](C)O)[C@@H](C)CC)C(C)C)[C@H](C)O)C(C)C [synAQU6-L] (Myristoyl-[Orn][dY][dV][dT][dOrn][Orn][dV]IL[dOrn]TA-OH) | > 64 | 8 (≈ 5.17 µM) | > 64 | 4 (≈ 2.59 µM) | > 64 | > 64 | 32 (≈ 20.7 µM) | 32 (≈ 20.7 µM) | > 64 | > 64 | > 64 | 2 (≈ 1.29 µM) | > 64 | > 64 | > 64 | > 64 | > 64 | > 64 | > 64 | > 64 | MIC Streptococcus mutans ATCC 25175 [22]: 4 µg/mL (≈ 2.59 µM); MIC Pseudomonas aeruginosa ATCC 9027 [23]: 32 µg/mL (≈ 20.7 µM); MIC Klebsiella pneumoniae NCTC 5056 [24]: > 64 µg/mL; MIC Staphylococcus aureus USA300 [25]: > 64 µg/mL; MIC Salmonella enterica ATCC 14028 [26]: > 64 µg/mL; MIC Candida albicans ATCC 10231 [27]: > 64 µg/mL; MIC Candida albicans ATCC 64550 [28]: > 64 µg/mL
3 | Bacaucin |  |  |  |  |  |  |  |  |  |  |  |  |  |  |  |  |  |  |  |  | antibacterial activity [29]: Broad antibacterial activity; hemolytic activity [30]: He mo l y t i c; cytotoxic activity [31]: Cyt ot oxic
4 | Bacaucin-1 |  |  |  |  |  |  |  |  |  |  |  |  |  |  |  |  |  |  |  |  | antibacterial activity [29]: Specific anti-bacterial activity against MR S A; hemolytic activity [30]: No hemolytic activity; cytotoxic activity [31]: No cytotoxic activity
